# Patent publication US7235267B1, “Brain cell or nerve cell-protecting agents comprising medicinal ginseng” (priority 1999, dated 2007)
# Where two headings read alike, the source gives them in different places.
# Assays:
# [1] = test system: Wistar rats with spinal cord injury; experiment: Spinal cord injury model (20 g compression on lower thoracic cord for 20 minutes); assay type: in vivo, rat
# From the text: The present inventors have investigated the effects of repetitive or continuous intravenous administration of ginsenoside Rb1 using rats with spinal cord injury and the effects were compared with those of repetitive or continuous intravenous administration of a crude saponin fraction of medicinal ginseng. If pressure is loaded on certain spinal segments such as the lower thoracic cord, not only nerve cells (neurons) in the gray matter of the same region but also fiber tracts or pathways in the white matter of the same region are damaged. The damages to the fiber tracts or pathways of the white matter are further developed to the distal portions (caudal portions) as well as causing the secondary degeneration of the origins of the fiber tract or pathways, namely the upper nerve cell bodies (i.e. origins) which project fibers (nerve processes) to the fiber tracts or pathways. As a result, the damages to the fiber tracts or pathways of the white matter in the lower thoracic cord, which received compression loading, induce the secondary degeneration of the origins (nerve cell bodies) sending fibers (also termed nerve processes or axons) to the fiber tracts or pathways as well as the secondary degeneration of fiber tracts located distal to the lower thoracic cord (i.e. lumbar cord and sacral cord) to cause paraplegia of both limbs. Further, since the innervation from the brain regions proximal to the lumbar cord and sacral cord is cut off due to damage to the lower thoracic cord, the secondary degeneration of nerve cells in the gray matters of the lumbar cord and sacral cord is further induced, as a result, paraplegia of the limbs can not be recovered. For that model of the spinal cord injury, the present inventors have used male Wistar rats (body weight about 300 g) loaded with 20 g of compression on the lower thoracic cord for 20 minutes.
# Under inhalation anesthesia by a mixture of nitrous oxide and halothane, the rats were loaded with 20 g of compression on the lower thoracic cord for 20 minutes. After more than 30 minutes passed, ginsenoside Rb1 dissolved in physiological saline was injected once into the left femoral vein (12 μg or 60 μg), thereafter continuous or repetitive intravenous administration of ginsenoside Rb1 was performed for 7 days by using an Alza osmotic minipump (12 μg/day or 60 μ/day). Control animals and sham-operated animals were administered with the same amount of physiological saline (vehicle) alone. The open field locomotor scores [Basso, Bettie and Bresnakan (BBB) scores] were measured in each animal before loading spinal cord injury, on the day of spinal cord injury and from 1st day to 7th day after the spinal cord injury for use as an index of motor functions (Basso D. M. et al., J. Neurotrauma, 13, 343-359, 1996). BBB scores of the sham-operated rats (normal rats) were 20-21.
# Under inhalation anesthesia by a mixture of nitrous oxide and halothane, the rats were loaded with 20 g of compression on the lower thoracic cord for 20 minutes. More than 30 minutes later, the crude saponin fraction dissolved in physiological saline was infused once into the left femoral vein (870 μg), thereafter continuous intravenous administration of the crude saponin fraction was performed for 7 days by using an Alza osmotic minipump (870 μg/day). Control animals with spinal cord injuries were administered with the same amount of physiological saline (vehicle) alone. […] These figures are photographs in place of drawings.
# Under inhalation anesthesia by a mixture of nitrous oxide and halothane, wistar rats (body weight about 300 g) were loaded with 20 g of compression on the lower thoracic cord for 20 minutes. After they were awakened from anesthesia, the rats with paraplegia in both hindlimbs were allowed to stay for 1 hour and 40 minutes in the cage. […]
# Bcl-xL = Bcl-xL expression in primary cultured myocardial cells (RT-PCR, immunoblotting); assay type: cell-based, rat
# Method: Next, we have studied effect of ginsenoside Rb1 on the heart. For that purpose, for example, changes in the expression of Bcl-xL mRNA and Bcl-xL protein were examined with RT-PCR and immunoblotting, when primary cultured myocardial cells were cultured for 18 hours in the presence of ginsenoside Rb1. Myocardial cells were prepared as follows. The hearts of fetal rats at gestational day 17 were treated with trypsin EDTA to prepare dispersed cells, which were cultured for several days in DMEM containing 10% FCS (fetal calf serum). In RT-PCR, β-actin mRNA was used as the internal standard. In the immunoblotting, troponin T, a striated muscle-specific protein, was used as the internal standard, and expression of Bcl-xL protein was examined. In the immunoblotting, the same experiments were repeated 10 times by using different lots of myocardial cells, and Bcl-xL immunoreaction-positive bands were analyzed by densitometry and statistical analysis was performed.
# Subsequently we studied the effectiveness of ginsenoside Rb1 on heart. For that purpose, for example, changes in the expressions of Bcl-xL mRNA and Bcl-xL protein were examined with the use of RT-PCR and immunoblotting, when the primary cultured myocardial cells were cultured for 18 hours in the presence of ginsenoside Rb1. Myocardial cells were prepared as follows. The hearts of fetal rats at gestational day 17 were treated with trypsin EDTA to prepare the dispersed cells, which were cultured for several days in DMEM containing 10% FCS (fetal calf serum). In RT-PCR, β-actin mRNA was used as the internal standard. In the immunoblotting, troponin T, a striated muscle-specific protein, was used as the internal standard, and expression of Bcl-xL protein was examined. In the immunoblotting, the same experiments were repeated 10 times by using different lots of myocardial cells, and Bcl-xL immunoreaction-positive bands were analyzed by densitometry and statistical analysis was performed.
# [2] = Observation of animals for ill or adverse effects; assay type: in vivo; conditions: present experiments
# [3] = test system: SH-SP rats with MCA permanent occlusion; conditions: cited from earlier work
# [4] = test system: rats with ischemia/reperfusion or permanent occlusion of the middle cerebral artery; conditions: cited from earlier work
# cultured nerve cells = conditions: cited from earlier work
# [5] = low concentrations or low doses; cited from earlier work
# [6] = intracerebroventricular administration; cited from earlier work
# [7] = Cerebral blood flow, brain temperature, blood pressure; conditions: intravenous infusion 60 μg/day
smiles,measurement,setting,value
CC(C)=CCC[C@](C)(O[C@@H]1O[C@H](CO[C@@H]2O[C@H](CO)[C@@H](O)[C@H](O)[C@H]2O)[C@@H](O)[C@H](O)[C@H]1O)[C@H]1CC[C@]2(C)[C@@H]1[C@H](O)C[C@@H]1[C@@]3(C)CC[C@H](O[C@@H]4O[C@H](CO)[C@@H](O)[C@H](O)[C@H]4O[C@@H]4O[C@H](CO)[C@@H](O)[C@H](O)[C@H]4O)C(C)(C)[C@@H]3CC[C@]12C [ginsenoside Rb1],healing of the operative dorsal wounds / ill effects,[1]; compared with rats administered with physiological saline,no such ill effects
same,motor abilities (BBB scores) at the 7th day after spinal cord injury,[1]; ginsenoside Rb1 intravenous 12 μg/day and 60 μg/day,significantly ameliorated in a dose-dependent manner
same,bedsore (decubitus),[1]; ginsenoside Rb1 intravenous 60 μg/day starting 2 hours after spinal cord injury,hardly observed
same,paraplegia of both hindlimbs,"[1]; ginsenoside Rb1 intravenous 60 μg/day starting 2 hours after spinal cord injury, from 3-4 days after onset",gradually ameliorated
same,paraplegia of both hindlimbs,"[1]; ginsenoside Rb1 intravenous 60 μg/day starting more than 30 minutes after compression, 1-2 days later",significantly ameliorated
same,expression of Bcl-xL protein in myocardial cells,"Bcl-xL; 1 fg/ml to 10^4 fg/ml, 18 hours, n=10",significantly enhanced
same,expression of Bcl-xL mRNA in myocardial cells,"Bcl-xL; 1 fg/ml-100 fg/ml, 18 hours",obviously increased
same,concentrations increasing Bcl-xL mRNA in myocardial cells,Bcl-xL; FIG. 25,1 to 100 fg/mL
same,ill / adverse effects on careful observation of animals,[2],No adverse effect was detected
same,ischemia-induced place navigation disability,[3]; ginsenoside Rb1 intracerebroventricular infusion immediately after permanent MCA occlusion,ameliorated
same,ischemia-induced place navigation disability,[3]; ginsenoside Rb1 repetitive or continuous intravenous 6 μg or 60 μg/day,significantly ameliorated
same,effect on infarction,[4]; intravenous 10 mg/kg before permanent occlusion of the middle cerebral artery,absolutely no effect
same,reduction of size of the infarction vs control,[4]; intravenous 40 mg/kg before permanent occlusion of the middle cerebral artery,about 14%
same,reduction of infarction size vs control,[4]; single intravenous 10-40 mg/kg after the reperfusion,12%-35%
same,reduction of infarction size vs control,"[4]; single intravenous 10-40 mg/kg before ischemia, ischemia/reperfusion model",20%-49%
same,suppression of apoptosis-like nerve cell death and Bcl-xL protein expression in nerve cells,"cultured nerve cells; 1 fg/ml and 100 fg/ml (tested 1, 100 and 10^5 fg/ml)",significant effects
same,formation of lipid peroxides,cultured nerve cells; 100 fg/ml,slight suppressive action
same,concentrations reducing neurotoxicity of glutamic acid,"cultured nerve cells; Kim et al. 1998, Liu and Zhang 1995",0.11 to 11 µg/mL
same,concentration that may protect against apoptosis-like death,cultured nerve cells; Tanaka et al. 1998,500 µM
same,concentrations reducing necrosis of nerve cells caused by ferrous sulfate,cultured nerve cells; added in advance to the culture medium,0.1 to 100 fg/mL
same,nerve cell death,"cultured nerve cells; high concentration of ginsenoside Rb1, inventors' cell culture experiments",did not suppress
same,metabolic activity of control cultured nerve cells,cultured nerve cells; not treated with SNP,no effect
same,concentrations enhancing expression of Bcl-xL in cultured neurons,cultured nerve cells; prior application,1˜100 fg/ml
same,extracellular concentrations protecting nerve cells injured by SNP,cultured nerve cells; sodium nitroprusside treatment (prior application),1 to 100 fg/mL
same,bleeding tendency,[5],does not promote
same,"brain temperature, cerebral blood flow or blood pressure",[6],no effects
same,cerebral blood flow,[7],does not affect
